In patent publication US4876243A, “Vasopressin compounds” (Smithkline Beckman Corporation, priority 1987, dated 1989):
*1 amine or outer side, *2 acyl side, *3 side chain or, on linkers, in order; H or OH if unused. Where a SMILES comes first, the peptide text is derived from it. Bridges are numbered along the chain shown (N, C = ends). [ ]: non-standard residue; d: D form. X1 = O=C(CC1(S[*:2])CCCCC1)[*:1]; αMeV = CC(C)[C@](C)(N)C(=O)O; Aib = CC(C)(N)C(=O)O

Key:
V2-vasopressin receptors [1] = target: T1, V2-vasopressin receptors (Sus scrofa, UniProt P32307); assay: receptor binding ability measured by inhibition of 3H-LVP binding; details: read-out: Pig V2 KB
T1 construct: in the medullary tissue of hog kidneys; from tissue; host or cells: hog kidney medullary tissue
Protocol: (§1) Antagonistic activity at the V2 -vasopressin receptors is determined in a protocol which determines in vitro activity in pig tissue or in vivo diuretic activity in the hydropenic rat (ED300 μg/kg). These procedures are described in the literature. F. Stassen et al., 1st International Conference on Diuretics, Miami, Fla., March (1984).
(§2) Antagonistic activity at the V1 -vasopressin receptors is determined in a protocol which measures the reversal of the vasopressin induced contraction of rat thoracic aorta tissue. This is expressed as KB (nM) in the table below. Such anti-pressor activity is confirmed in a similar in vitro protocol using the plasma membranes of rat liver. V2 -vasopressin antagonism is determined as receptor binding ability measured by inhibition of 3H-LVP binding (KB as nM), by inhibition of adenylate cyclase activation by vasopressin in the medullary tissue of hog kidneys (Ki as nM) or in vivo in the […] rat protocol (ED300 μg/kg). These procedures are described in the literature: F. Stassen et al., J. Pharmacology and Experimental Therapeutics, 223 50 (1982).

V2-vasopressin receptors [2] = target: T1, V2-vasopressin receptors; assay: inhibition of adenylate cyclase activation by vasopressin in the medullary tissue of hog kidneys; format: biochemical; details: hog kidney medullary tissue, vasopressin-activated adenylate cyclase; read-out: Pig V2 Ki
Protocol: as §1
as §2, with “Such anti-pressor activity is confirmed in a similar in vitro protocol using the plasma membranes of rat liver.” left out

V1-vasopressin receptors = target: T2, V1-vasopressin receptors (Rattus norvegicus, UniProt P30560); assay: reversal of the vasopressin induced contraction of rat thoracic aorta tissue
T2 construct: vasopressin induced contraction of rat thoracic aorta tissue; from tissue; host or cells: rat thoracic aorta tissue
Protocol: as §2

T1 sequence (P32307 whole entry): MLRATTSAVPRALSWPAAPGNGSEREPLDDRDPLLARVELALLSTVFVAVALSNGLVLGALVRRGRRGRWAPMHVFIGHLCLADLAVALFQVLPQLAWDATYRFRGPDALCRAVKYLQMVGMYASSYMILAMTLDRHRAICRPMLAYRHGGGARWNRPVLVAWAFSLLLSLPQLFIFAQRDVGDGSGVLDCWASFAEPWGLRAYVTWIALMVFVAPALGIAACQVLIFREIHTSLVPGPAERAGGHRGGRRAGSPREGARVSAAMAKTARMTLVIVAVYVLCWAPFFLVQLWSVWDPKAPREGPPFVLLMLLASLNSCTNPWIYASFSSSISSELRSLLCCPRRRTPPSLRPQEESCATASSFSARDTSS
T2 sequence (P30560 whole entry): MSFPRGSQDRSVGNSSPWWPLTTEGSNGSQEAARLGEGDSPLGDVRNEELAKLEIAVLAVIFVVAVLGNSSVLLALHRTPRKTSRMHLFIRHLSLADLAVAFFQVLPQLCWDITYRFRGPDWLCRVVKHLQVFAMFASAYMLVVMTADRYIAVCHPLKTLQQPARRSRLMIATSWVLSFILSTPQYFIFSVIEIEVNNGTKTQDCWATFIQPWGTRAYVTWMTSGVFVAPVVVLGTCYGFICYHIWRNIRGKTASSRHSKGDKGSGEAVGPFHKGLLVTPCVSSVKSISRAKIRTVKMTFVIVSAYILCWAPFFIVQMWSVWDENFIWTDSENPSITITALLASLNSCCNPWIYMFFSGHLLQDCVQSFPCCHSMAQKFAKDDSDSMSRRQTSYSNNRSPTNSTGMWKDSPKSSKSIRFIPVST

SMILES	Kb (V2-vasopressin receptors [1]) [nM]	Ki (V2-vasopressin receptors [2]) [nM]	Kb (V1-vasopressin receptors) [nM]
CCOc1ccc(C[C@H]2NC(=O)CC3(CCCCC3)SSC[C@@H](C(=O)NC(C)(C)C(=O)N[C@@H](CCCNC(=N)N)C(N)=O)NC(=O)[C@H](CC(N)=O)NC(=O)[C@H](C(C)C)NC(=O)[C@H](Cc3ccccc3)NC2=O)cc1 [E, [1-(β,β-cyclopentamethylene-β-mercaptopropionic acid)-2-(O-ethyl-D-tyrosine)-4-valine-7-α-aminoisobutyric acid-8-arginine-9-desglycine]vasopressin] ([dY](Et)FVNC[Aib]R-NH2; linker N-5 via X1)	15	16	
COc1ccc(C[C@@H]2NC(=O)CC3(CCCCC3)SSC[C@@H](C(=O)N3CCC[C@H]3C(=O)N[C@@H](CCCN=C(N)N)C(=O)NCC(N)=O)NC(=O)[C@H](CC(N)=O)NC(=O)[C@H](C(C)C)NC(=O)[C@H](Cc3ccccc3)NC2=O)cc1 [F, [1-(β,β-cyclopentamethylene-β-mercaptopropionic acid)-2-(O-methyl-L-tyrosine)-4-valine-8-arginine]vasopressin, reference compound] (Y(Me)FVNCPRG-NH2; linker N-5 via X1)	35	88	12
CCOc1ccc(C[C@H]2NC(=O)CC3(CCCCC3)SSC[C@@H](C(=O)N3CCC[C@H]3C(=O)N[C@@H](CCCNC(=N)N)C(=O)NCC(N)=O)NC(=O)[C@H](CC(N)=O)NC(=O)[C@](C)(C(C)C)NC(=O)[C@H](Cc3ccccc3)NC2=O)cc1 [C, [1-(β,β-cyclopentamethylene-β-mercaptopropionic acid)-2-(O-ethyl-D-tyrosine)-4-α-methylvaline-8-arginine]vasopressin] ([dY](Et)F[αMeV]NCPRG-NH2; linker N-5 via X1)	11	31	
CCOc1ccc(C[C@H]2NC(=O)CC3(CCCCC3)SSC[C@@H](C(=O)N3CCC[C@H]3C(=O)N[C@@H](CCCNC(=N)N)C(N)=O)NC(=O)[C@H](CC(N)=O)NC(=O)C(C)(C)NC(=O)[C@H](Cc3ccccc3)NC2=O)cc1 [B, [1-(β,β-cyclopentamethylene-β-mercaptopropionic acid)-2-(O-ethyl-D-tyrosine)-4-α-aminoisobutyric acid-8-arginine-9-desglycine]vasopressin] ([dY](Et)F[Aib]NCPR-NH2; linker N-5 via X1)	580	140	
CCOc1ccc(C[C@H]2NC(=O)CC3(CCCCC3)SSC[C@@H](C(=O)N3CCC[C@H]3C(=O)N[C@@H](CCCN=C(N)N)C(=O)NCC(N)=O)NC(=O)[C@H](CC(N)=O)NC(=O)[C@H](C(C)C)NC(=O)[C@H](Cc3ccccc3)NC2=O)cc1 [G, [1-(β,β-cyclopentamethylene-β-mercaptopropionic acid)-2-(O-ethyl-D-tyrosine)-4-valine-8-arginine]vasopressin, reference compound] ([dY](Et)FVNCPRG-NH2; linker N-5 via X1)	6.7		1.4
CCOc1ccc(C[C@H]2NC(=O)CC3(CCCCC3)SSC[C@@H](C(=O)NC(C)(C)C(=O)N[C@@H](CCCNC(=N)N)C(=O)NCC(N)=O)NC(=O)[C@H](CC(N)=O)NC(=O)[C@H](C(C)C)NC(=O)[C@H](Cc3ccccc3)NC2=O)cc1 [A, [1-(β,β-cyclopentamethylene-β-mercaptopropionic acid)-2-(O-ethyl-D-tyrosine)-4-valine-7-α-aminoisobutyric acid-8-arginine]vasopressin] ([dY](Et)FVNC[Aib]RG-NH2; linker N-5 via X1)	9.2	18	
COc1ccc(C[C@@H]2NC(=O)CC3(CCCCC3)SSC[C@@H](C(=O)N3CCC[C@H]3C(=O)N[C@@H](CCCNC(=N)N)C(=O)NCC(N)=O)NC(=O)[C@H](CC(N)=O)NC(=O)[C@](C)(C(C)C)NC(=O)[C@H](Cc3ccccc3)NC2=O)cc1 [D, [1-(β,β-cyclopentamethylene-β-mercaptopropionic acid)-2-(O-methyl L-tyrosine)-4-α-methylvaline-8-arginine]vasopressin] (Y(Me)F[αMeV]NCPRG-NH2; linker N-5 via X1)	170	490	18
